Results: paper PMC11243177, “The Discovery, Molecular Cloning, and Characterization of Dextransucrase LmDexA and Its Active Truncated Mutant from Leuconostoc mesenteroides NN710” (Molecules, 2024)

Target: T1, ΔN190LmDexA (Leuconostoc mesenteroides, UniProt Q03VD8)
T1 construct: gene LEUM_1747; N-terminal 190 residues removed (signal peptide and variable region); 1372 aa, theoretical 150 kDa; borders 191-1562 derived from printed lengths
Test: DNS assay of released reducing sugar (fructose), Michaelis-Menten fit
Assay type: biochemical
Details: pH 5.6, 30 °C, 20 mM sodium acetate, 3-300 mM sucrose, 30 min

T1 sequence (Q03VD8 entry or part of it, stated change not applied): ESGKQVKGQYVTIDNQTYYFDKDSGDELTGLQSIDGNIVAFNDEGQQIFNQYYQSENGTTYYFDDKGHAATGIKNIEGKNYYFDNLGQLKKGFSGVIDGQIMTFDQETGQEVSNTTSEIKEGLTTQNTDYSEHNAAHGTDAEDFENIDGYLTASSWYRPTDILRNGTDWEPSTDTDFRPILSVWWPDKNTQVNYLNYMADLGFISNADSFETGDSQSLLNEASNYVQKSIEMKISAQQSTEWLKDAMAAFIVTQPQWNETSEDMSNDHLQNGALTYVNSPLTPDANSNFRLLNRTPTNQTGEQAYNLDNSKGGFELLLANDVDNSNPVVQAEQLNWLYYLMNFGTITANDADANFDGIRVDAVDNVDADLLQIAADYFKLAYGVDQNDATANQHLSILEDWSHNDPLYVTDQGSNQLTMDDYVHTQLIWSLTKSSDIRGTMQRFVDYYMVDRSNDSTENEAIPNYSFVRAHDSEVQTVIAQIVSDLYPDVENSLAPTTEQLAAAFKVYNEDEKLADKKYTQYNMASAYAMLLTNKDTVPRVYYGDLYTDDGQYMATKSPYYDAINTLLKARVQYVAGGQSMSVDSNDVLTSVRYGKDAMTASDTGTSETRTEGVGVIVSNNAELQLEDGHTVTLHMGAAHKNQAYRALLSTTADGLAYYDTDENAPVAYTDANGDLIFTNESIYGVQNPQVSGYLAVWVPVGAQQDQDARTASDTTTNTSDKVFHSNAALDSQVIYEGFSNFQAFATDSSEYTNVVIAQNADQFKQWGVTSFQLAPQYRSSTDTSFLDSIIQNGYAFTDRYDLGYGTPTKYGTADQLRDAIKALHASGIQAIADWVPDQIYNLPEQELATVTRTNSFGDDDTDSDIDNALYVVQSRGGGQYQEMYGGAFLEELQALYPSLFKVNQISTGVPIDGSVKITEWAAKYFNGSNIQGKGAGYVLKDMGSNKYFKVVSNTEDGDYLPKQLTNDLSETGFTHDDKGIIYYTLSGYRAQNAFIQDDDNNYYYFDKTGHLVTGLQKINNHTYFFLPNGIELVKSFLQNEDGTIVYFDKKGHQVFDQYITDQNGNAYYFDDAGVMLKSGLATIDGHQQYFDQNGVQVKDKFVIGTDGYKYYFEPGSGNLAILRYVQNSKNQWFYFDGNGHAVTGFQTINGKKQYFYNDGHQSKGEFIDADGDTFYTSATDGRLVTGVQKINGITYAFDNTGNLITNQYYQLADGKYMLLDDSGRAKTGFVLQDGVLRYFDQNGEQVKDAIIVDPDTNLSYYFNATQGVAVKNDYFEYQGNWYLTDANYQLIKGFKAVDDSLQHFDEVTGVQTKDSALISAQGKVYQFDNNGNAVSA

OC[C@H]1O[C@@](CO)(O[C@H]2O[C@H](CO)[C@@H](O)[C@H](O)[C@H]2O)[C@@H](O)[C@@H]1O [sucrose]
Km: 13.7 mM
